Measured values: article PMC11117721, “A Fast-Binding, Functionally Reversible, COX-2 Radiotracer for CNS PET Imaging” (ACS Central Science, 2024)

Target: T1, COX-2 (Rattus norvegicus, UniProt P35355)
T1 construct: endogenous COX-2 expression in naïve rats; from tissue; host or cells: brain of living naive rats
T1 sequence (P35355 18-604): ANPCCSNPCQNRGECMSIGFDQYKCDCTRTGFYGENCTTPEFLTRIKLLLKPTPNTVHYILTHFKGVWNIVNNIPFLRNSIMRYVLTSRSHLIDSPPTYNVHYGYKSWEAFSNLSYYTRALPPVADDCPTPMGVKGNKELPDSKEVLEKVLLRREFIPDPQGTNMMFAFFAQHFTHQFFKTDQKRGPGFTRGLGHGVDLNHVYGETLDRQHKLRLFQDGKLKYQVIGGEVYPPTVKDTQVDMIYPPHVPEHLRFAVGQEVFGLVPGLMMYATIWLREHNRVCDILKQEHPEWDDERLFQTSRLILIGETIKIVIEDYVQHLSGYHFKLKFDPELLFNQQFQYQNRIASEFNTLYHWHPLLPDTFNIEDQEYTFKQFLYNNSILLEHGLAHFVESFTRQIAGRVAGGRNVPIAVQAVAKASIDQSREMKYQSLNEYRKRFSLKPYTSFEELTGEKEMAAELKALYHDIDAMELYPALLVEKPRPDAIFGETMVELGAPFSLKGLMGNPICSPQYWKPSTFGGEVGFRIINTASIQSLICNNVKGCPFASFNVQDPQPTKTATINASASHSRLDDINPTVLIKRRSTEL
Test: PET neuroimaging of naïve rats
Conditions: in vivo PET, result in words
Procedure: deepest would be injected and allowed to perfuse for 15 min until all three injections were completed.
In some experimental groups, mannitol was injected intraperitoneally (IP) or co -administered with the […]
After the surgical procedure was completed, animals were given enough time to recover (generally 28 days post-surgery) to facilitate cellular transduction with the AAV as well as subsequent expression of COX -2 and GFP, before subsequent imaging or IHC interrogation was conducted.
Rodent PET/MRI Acquisition
All PET and MRI experimental procedures were acquired on a 4.7 Tesla PET-MRI scanner using a B-GA20S HP gradient coil with a PET Insert Si 198 (Bruker Biospin, Billerica, MA). Custom 3D-printed cradles were used to secure anesthetized animals in the scanner. Rat and mice experimental groups were imaged separately. For rats, one animal was placed head-prone, and the other was placed tail-prone, aligning their heads in the scanner. For rat blocking experiments celecoxib was formulated in 20% ethanol, 30% polyethylene glycol and 50% saline and diluted appropriately to administer 1 mL/kg. For mice, up to six mice were inserted, two head prone and four tail prone. ParaVision 6 (Bruker) was used to acquire MR images, and ParaVision 360 (Bruker) was used to obtain PET images. […]

brain uptake: rapid and robust brain uptake
SMILES: [11CH3]S(=O)(=O)c1ccc(-c2cccc(NCc3ccoc3)n2)cc1 [[^11C]BRD1158]
